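Protocol summary: plate cells (96-well), add compound at 5 concentrations, incubate 48 h, interpolate endpoints linearly. The concentration for 50% growth inhibition is given as GI50.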 Active and inactive are the calls of the source. Rule as the data show it: active = GI50 up to about 1.1 µM and inactive = higher.
Tests used:
Test in all cases: inhibition of tumour cell growth, NCI panel, 48 h
HL-60 = test system: HL-60
SF-295 = test system: SF-295
RPMI-8226 = test system: RPMI-8226
U-251 = test system: U-251
SW-620 = test system: SW-620
MDA-N = test system: MDA-N
KM12 = test system: KM12
SK-MEL-28 = test system: SK-MEL-28
A498 = test system: A498
SK-OV-3 = test system: SK-OV-3
SNB-19 = test system: SNB-19
IGROV-1 = test system: IGROV-1
M14 = test system: M14
SR = test system: SR
SF-268 = test system: SF-268
Hs-578T = test system: Hs-578T
OVCAR-5 = test system: OVCAR-5
COLO 205 = test system: COLO 205
UACC-257 = test system: UACC-257
NCI/ADR-RES = test system: NCI/ADR-RES

SMILES | GI50 (HL-60) | GI50 (SF-295) | GI50 (RPMI-8226) | GI50 (U-251) | GI50 (SW-620) | GI50 (MDA-N) | GI50 (KM12) | GI50 (SK-MEL-28) | GI50 (A498) | GI50 (SK-OV-3) | GI50 (SNB-19) | GI50 (IGROV-1) | GI50 (M14) | GI50 (SR) | GI50 (SF-268) | GI50 (Hs-578T) | GI50 (OVCAR-5) | GI50 (COLO 205) | GI50 (UACC-257) | GI50 (NCI/ADR-RES)
O=C1C=CC(=O)C(CNc2ccc(C(=O)OCc3ccccc3)cc2)=C1 | 1.08 µM (active) | 17.7 µM (inactive) | 1.47 µM (inactive) | 6.24 µM (inactive) | 4.99 µM (inactive) | 6.85 µM (inactive) | 9.35 µM (inactive) | 5.11 µM (inactive) | 11.2 µM (inactive) | 12.6 µM (inactive) | 13.4 µM (inactive) | 3.27 µM (inactive) | 7.05 µM (inactive) | 1.29 µM (inactive) | 6.4 µM (inactive) | 6.12 µM (inactive) | 15.6 µM (inactive) | 1.86 µM (inactive) | 11.5 µM (inactive) | 4 µM (inactive)
CCC1NC(=O)C(NC(=O)c2ncccc2O)C(C)OC(=O)C(c2ccccc2)NC(=O)C2CC(=O)CCN2C(=O)C(Cc2ccccc2)N(C)C(=O)C2CCCN2C1=O (stereo not given) | 52.6 µM (inactive) | > 100 µM (inactive) | > 100 µM (inactive) | > 100 µM (inactive) | > 100 µM (inactive) | > 100 µM (inactive) | > 100 µM (inactive) | > 100 µM (inactive) | > 100 µM (inactive) | > 100 µM (inactive) | > 100 µM (inactive) | > 100 µM (inactive) | > 100 µM (inactive) | 37.4 µM (inactive) | > 100 µM (inactive) | > 100 µM (inactive) | > 100 µM (inactive) | > 100 µM (inactive) | > 100 µM (inactive) | > 100 µM (inactive)
O=C1CCC(CCc2nc3ccccc3[nH]2)(c2ccccc2)C(=O)N1 (stereo not given) | > 100 µM (inactive) | > 100 µM (inactive) | > 100 µM (inactive) | > 100 µM (inactive) | > 100 µM (inactive) | > 100 µM (inactive) | > 100 µM (inactive) | > 100 µM (inactive) | > 100 µM (inactive) | > 100 µM (inactive) | > 100 µM (inactive) | 64 µM (inactive) | > 100 µM (inactive) | > 100 µM (inactive) | > 100 µM (inactive) | 29.7 µM (inactive) | > 100 µM (inactive) | > 100 µM (inactive) | > 100 µM (inactive) | > 100 µM (inactive)
C#C[C@]1(O)CC[C@H]2[C@@H]3CCC4=C/C(=N/OC(=O)c5cccc6c(=O)c7ccccc7[nH]c56)CC[C@@H]4[C@H]3CC[C@@]21C | 17.4 µM (inactive) | 92 µM (inactive) | 13.6 µM (inactive) | 62.1 µM (inactive) | 56.2 µM (inactive) | 43.2 µM (inactive) | 34.8 µM (inactive) | 62.4 µM (inactive) | > 100 µM (inactive) | > 100 µM (inactive) | > 100 µM (inactive) | 68.4 µM (inactive) | 56.5 µM (inactive) | 12.1 µM (inactive) | 80 µM (inactive) | 54.1 µM (inactive) | > 100 µM (inactive) | 24.4 µM (inactive) | 37.2 µM (inactive) | 58.6 µM (inactive)
CCOC(=O)CC(=O)Nc1cccc2nc[nH]c12 | > 100 µM (inactive) | > 100 µM (inactive) | > 100 µM (inactive) | > 100 µM (inactive) | > 100 µM (inactive) | > 100 µM (inactive) | 51.8 µM (inactive) | > 100 µM (inactive) | > 100 µM (inactive) | > 100 µM (inactive) | > 100 µM (inactive) | > 100 µM (inactive) | > 100 µM (inactive) | > 100 µM (inactive) | 98.2 µM (inactive) | 0.267 µM (active) | > 100 µM (inactive) | > 100 µM (inactive) | > 100 µM (inactive) | > 100 µM (inactive)
Cc1ccc(CC(Cc2ccc(C)cc2C(=O)O)C(=O)O)cc1 (stereo not given) | > 100 µM (inactive) | > 100 µM (inactive) | > 100 µM (inactive) | > 100 µM (inactive) | > 100 µM (inactive) | > 100 µM (inactive) | > 100 µM (inactive) | > 100 µM (inactive) | > 100 µM (inactive) | > 100 µM (inactive) | > 100 µM (inactive) | > 100 µM (inactive) | > 100 µM (inactive) | > 100 µM (inactive) | > 100 µM (inactive) | > 100 µM (inactive) | > 100 µM (inactive) | > 100 µM (inactive) | > 100 µM (inactive) | > 100 µM (inactive)
CCC1=NC(N/N=C/c2ccccc2O)=N/C1=C\c1ccccc1O | 4.53 µM (inactive) | 7.69 µM (inactive) | 12.9 µM (inactive) | 19.3 µM (inactive) | 7.5 µM (inactive) | 17 µM (inactive) | 17 µM (inactive) | 23.7 µM (inactive) | 26.7 µM (inactive) | 12.4 µM (inactive) | 14.6 µM (inactive) | 11.5 µM (inactive) | 10.1 µM (inactive) | 27.9 µM (inactive) | 4.98 µM (inactive) | 23.9 µM (inactive) | 26.7 µM (inactive) | 13.3 µM (inactive) | 14.8 µM (inactive) | 2.68 µM (inactive)
CN(NC(=O)c1cccs1)C1=NCCCCN1 | > 100 µM (inactive) | > 100 µM (inactive) | > 100 µM (inactive) | > 100 µM (inactive) | > 100 µM (inactive) | > 100 µM (inactive) | > 100 µM (inactive) | > 100 µM (inactive) | > 100 µM (inactive) | > 100 µM (inactive) | > 100 µM (inactive) | > 100 µM (inactive) | > 100 µM (inactive) | > 100 µM (inactive) | > 100 µM (inactive) | > 100 µM (inactive) | > 100 µM (inactive) | > 100 µM (inactive) | > 100 µM (inactive) | > 100 µM (inactive)
N=c1c2c(=S)n(-c3ccccc3)c(=S)n(-c3ccccc3)c2nc(SCCN2CCCC2)n1-c1ccccc1 | 0.183 µM (active) | 15.2 µM (inactive) | 0.341 µM (active) | 2.52 µM (inactive) | 1.76 µM (inactive) | 2.05 µM (inactive) | 5.2 µM (inactive) | 3.69 µM (inactive) | 11 µM (inactive) | 12.6 µM (inactive) | 15.2 µM (inactive) | 1.77 µM (inactive) | 1.6 µM (inactive) | 0.136 µM (active) | 2.7 µM (inactive) | 3.9 µM (inactive) | 17.5 µM (inactive) | 1.55 µM (inactive) | 1.61 µM (inactive) | 6.44 µM (inactive)
O=CNC(Cc1c[nH]cn1)C(=O)O (stereo not given) | > 100 µM (inactive) | > 100 µM (inactive) | > 100 µM (inactive) | > 100 µM (inactive) | > 100 µM (inactive) | > 100 µM (inactive) | > 100 µM (inactive) | > 100 µM (inactive) | > 100 µM (inactive) | > 100 µM (inactive) | > 100 µM (inactive) | > 100 µM (inactive) | > 100 µM (inactive) | > 100 µM (inactive) | > 100 µM (inactive) | > 100 µM (inactive) | > 100 µM (inactive) | > 100 µM (inactive) | > 100 µM (inactive) | > 100 µM (inactive)
COC(=O)C1Cc2ccc(O)c(O)c2CN1 (stereo not given) | 25.8 µM (inactive) | 7.41 µM (inactive) | 24.2 µM (inactive) | 17.4 µM (inactive) | 21.3 µM (inactive) | 16.4 µM (inactive) | 69.3 µM (inactive) | 17.3 µM (inactive) | > 100 µM (inactive) | > 100 µM (inactive) | 38.3 µM (inactive) | 35.8 µM (inactive) | 16.2 µM (inactive) | 29.1 µM (inactive) | > 10 µM (inactive) | 25.4 µM (inactive) | 27.5 µM (inactive) | > 100 µM (inactive) | 15.5 µM (inactive) | 22.1 µM (inactive)
Nc1ccn(CC(O)c2cc3ccccc3[nH]2)c(=O)n1 (stereo not given) | > 100 µM (inactive) | > 100 µM (inactive) | > 100 µM (inactive) | > 100 µM (inactive) | > 100 µM (inactive) | > 100 µM (inactive) | > 100 µM (inactive) | > 100 µM (inactive) | > 100 µM (inactive) | > 100 µM (inactive) | > 100 µM (inactive) | > 100 µM (inactive) | > 100 µM (inactive) | > 100 µM (inactive) | > 100 µM (inactive) | > 100 µM (inactive) | > 100 µM (inactive) | > 100 µM (inactive) | > 100 µM (inactive) | > 100 µM (inactive)
CN1CC[N+](C)=C1c1ccccc1 | > 100 µM (inactive) | > 100 µM (inactive) | > 100 µM (inactive) | > 100 µM (inactive) | > 100 µM (inactive) | > 100 µM (inactive) | > 100 µM (inactive) | > 100 µM (inactive) | > 100 µM (inactive) | > 100 µM (inactive) | > 100 µM (inactive) | > 100 µM (inactive) | > 100 µM (inactive) | > 100 µM (inactive) | > 100 µM (inactive) | > 100 µM (inactive) | > 100 µM (inactive) | > 100 µM (inactive) | > 100 µM (inactive) | > 100 µM (inactive)
N=C1OC(c2c[nH]c3ccc(OCc4ccccc4)cc23)C(O)=C1O (stereo not given) | 71.1 µM (inactive) | > 100 µM (inactive) | > 100 µM (inactive) | > 100 µM (inactive) | > 100 µM (inactive) | > 100 µM (inactive) | > 100 µM (inactive) | > 100 µM (inactive) | 59.2 µM (inactive) | > 100 µM (inactive) | > 100 µM (inactive) | > 100 µM (inactive) | > 100 µM (inactive) | > 100 µM (inactive) | > 100 µM (inactive) | > 100 µM (inactive) | > 100 µM (inactive) | > 100 µM (inactive) | > 100 µM (inactive) | > 100 µM (inactive)
